The compounds below were run against von Hippel-Lindau disease tumor suppressor (Homo sapiens, UniProt P40337) (assay: VHL HEK-293 BRET Assay).
Protocol: The VHL NanoBRET Target Engagement Assay analyzes the apparent affinity of test compounds for VHL in cells by competitive displacement of a VHL NanoBRET tracer reversibly bound to a NanoLuc VHL fusion protein stably expressed in the cells.[0488] Test compounds were transferred to the assay plate (384 Well White Non-Binding Corning Assay Plates (Corning-3574)) using an Echo 555 Liquid Handler (Labcyte) in 2.5 nL increments and, as appropriate, intermediate stock concentrations of compounds, in order to prepare a titration series.50 nL of control compound (10mM; parental unlabeled VHL antagonist; see structure below) and 50 nL of DMSO (negative control) were dispensed into the appropriate control wells. DMSO was backfilled to a final volume of 50 nL as required.50nl per well of 1 mM VHL NanoBRET Tracer in DMSO (NanoBRETTM Tracer-PEG2-590 (see structure below)) was transferred into each well using an Echo 555 (ultimately yielding a final concentration of 1uM). HEK 293 RT VHL-NanoLuc stable cells were cultured in DMEM High Glucose with Pyruvate, 10% fetal bovine serum, 2 mg/mL of Geneticin Selective Antibiotic (50 mg/ml) and 2 mM HEPES (1 M). Cells were seeded in Opti-MEM (Life Technologies-11058-021), 1.7 × 10^5 cells/mL, 40 ^l per well into the assay plate, centrifuged at 500 rpm for 30 seconds and incubated for 2 hours. Max Signal control wells consisted of DMSO only treated wells. Minimum Signal control wells contained of 10 uM parental unlabeled VHL antagonist (control compound see structure below). 3X Complete Substrate plus Inhibitor Solution was prepared in Opti-MEM (consists of a 1:166 dilution of NanoBRET Nano-Glo Substrate plus a 1:500 dilution of Extracellular NanoLuc Inhibitor in Opti-MEM), and 20 ul was dispensed into each well of the 384-well plate and centrifuged at 1000 rpm for 1 minute, then incubated for 2 minutes at room temperature. Background Signal control wells were prepared without tracer for background correction steps.[0489] Plates were read using a PerkinElmer Envision Reader (model 2104-0020) equipped with Luminescence option (Mirror: BRET2 Enh (PE Barcode 659), Emission Filter: Omega 610LP (Barcode 504), 2nd Emission Filter: Umbelliferone 460 (Barcode 207), Measurement height: 6.5 mm, Measurement time: 1s). The raw BRET ratio values were calculated by dividing the acceptor emission value (610 nm) by the donor emission value (460nm) for each sample. To correct for background, the BRET ratio in the absence of tracer (average of no-tracer control samples) was subtracted from the BRET ratio of each sample. Raw BRET units were converted to milliBRET units (mBU) by multiplying each raw BRET value by 1,000. The normalized NanoBRET signal was calculated relative to the Max Signal control wells (DMSO treated control wells) and the Minimum Signal control wells. Percentage inhibition was calculated relative to the Minimum Signal control and Maximum Signal control wells. IC50 values were derived by four parameter curve fitting using the Robust method.

von Hippel-Lindau disease tumor suppressor, sequence (P40337 whole entry, the tested form may be a part): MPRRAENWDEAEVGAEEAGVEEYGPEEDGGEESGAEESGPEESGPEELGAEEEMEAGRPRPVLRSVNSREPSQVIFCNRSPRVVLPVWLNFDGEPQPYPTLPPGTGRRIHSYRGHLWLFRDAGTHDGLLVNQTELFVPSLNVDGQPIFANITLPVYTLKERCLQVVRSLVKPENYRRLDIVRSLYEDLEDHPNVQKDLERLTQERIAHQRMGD

With `CNC(=O)[C@@H]1C[C@@H](O)CN1C(=O)[C@H](C(C)C)n1cc(C2CC2)nn1` [WO2022104345, Compound 11] as the compound, how does the IC50 read?
The IC50 was 3 µM.

`CNC(=O)[C@@H]1C[C@@H](O)CN1C(=O)[C@@H](C(C)C)n1cc(C2CC2)nn1` [WO2022104345, Compound 12] was tested. Which IC50 did it give?
The IC50 was over 100 µM.

How did the IC50 turn out when `CNC(=O)[C@@H]1C[C@@H](OC(C)=O)CN1C(=O)[C@H](n1cc(C2CC2)nn1)C(C)(C)C` [WO2022104345, Compound 13] was run?
Its IC50 is 62.8 µM.

With `CNC(=O)[C@@H]1C[C@@H](O)CN1C(=O)[C@H](C(C)C)n1cc(C2(C)CC2)nn1` [WO2022104345, Compound 21] as the compound, how does the IC50 read?
Its IC50 is 1.21 µM.

With `CNC(=O)[C@@H]1C[C@@H](O)CN1C(=O)C(=C(C)C)n1cc(C2CC2)nn1` [WO2022104345, Compound 32] as the compound, how does the IC50 read?
Its IC50 is 4.75 µM.

How did the IC50 turn out when `CNC(=O)[C@@H]1C[C@@H](O)CN1C(=O)[C@H](C(C)C)n1cc(-c2cncs2)nn1` [WO2022104345, Compound 41] was run?
The IC50 was 0.9 µM.

With `CNC(=O)[C@@H]1C[C@@H](O)CN1C(=O)[C@H](C1CCNCC1)n1cc(C2CC2)nn1` [WO2022104345, Example S7] as the compound, how does the IC50 read?
Its IC50 is over 100 µM.

How did the IC50 turn out when `CNC(=O)[C@@H]1C[C@@H](O)CN1C(=O)[C@H](C1CCN(C)CC1)n1cc(C2CC2)nn1` [WO2022104345, Example S8] was run?
The IC50 was over 100 µM.
